# US6737400B2, “Method and composition for treating irritable bowel syndrome using low doses of opioid receptor antagonists” (Albert Einstein College of Medicine of Yeshiva University, priority 1999, dated 2004)
# Tests used:
# [1] = tested on: constipation-predominant IBS patients; conditions: eight patients, 16 mg three times a week, eight weeks; cited from earlier work
# [2] = tested on: opioid analgesia in postsurgical patients; conditions: cited from earlier work; for Effect on analgesic potency of morphine: low-dose cotreatment with morphine, postsurgical patients, 24-hour test periods
# [3] = tested on: patients with IBS; assay: Open clinical study of low dose naltrexone in patients with IBS (daily symptom diary, global self-assessment); assay type: in vivo, human
# Method: An open study of low dose naltrexone administration in four (4) patients with IBS was initiated. The patients were evaluated for IBS, based on the Rome criteria. All patients were screened for other disorders or medications that could cause gastrointestinal symptoms of IBS. These included inflammatory bowel disease, cancer, lactose intolerance, and neurological disorders, as well as the use of narcotic medications. […] Each subject was fully informed of the benefits and possible side effects of the study and thereafter freely gave their consent to participate in the study.
# Each patient maintained a daily diary of the symptoms prior to and during treatment with 1-3 mg/day of naltrexone. Each participant noted the following symptoms:
# Patients were permitted to remain on medications other than anticholinergics and anti-diarrheal agents (i.e., fiber bulking agents or lactose enzyme replacement if needed).
# Naltrexone (tradename Revia; 50 mg tablets; DuPont Merck) was purchased at a pharmacy. Single tablets were crushed and dissolved in 50 ml boiled distilled water, and stored unfrozen in a refrigerator. Each patient received 2 ml (2 mg) orally each morning with breakfast. Medication was prepared weekly and used for seven doses, with the remainder being discarded.
# [4] = tested on: IBS patients; conditions: 30 mg, three times daily; cited from earlier work
# [5] = Patient A, after 24 months, 2.5-3.0 mg/day
# [6] = Patient B, after 12 months, 1.5-2.3 mg/day
# [7] = Patient D, after 9 months, 2.5-3.0 mg/day
compound,measurement,setting,value
"C=C1CCC2(O)C3Cc4ccc(OC5OC(C(=O)O)C(O)C(O)C5O)c5c4C2(CCN3CC2CC2)C1O5 (stereo not shown) [nalmefene glucuronide, Nalmefene glucuronide]",Abdominal pain or bloating,[1],did not reduce abdominal pain or bloating
same,Stool consistency,[1],not improved
same,Stool frequency,[1],increased stool frequency
same,Transit time,[1],decreased transit time
C=CCN1CC[C@]23c4c5ccc(O)c4O[C@H]2C(=O)CC[C@@]3(O)[C@H]1C5 [naloxone],Effect on analgesic potency of morphine,[2],markedly enhanced the analgesic potency of morphine
O=C1CC[C@@]2(O)[C@H]3Cc4ccc(O)c5c4[C@@]2(CCN3CC2CC2)[C@H]1O5 [naltrexone],Abdominal cramping,[3]; [5],completely ceased
same,Frequency of bowel actions,[3]; [5],returned to normal levels
same,Cramping abdominal pain,"[3]; Patient A, after nine months of treatment",no cramping abdominal pain
same,Stool frequency,"[3]; Patient A, after nine months of treatment, oral daily, before treatment about 4-8 times per day",1-2 formed bowel movements per day
same,Global improvement on the 0-4 scale,"[3]; Patient A, 0 = no observable change, 4 = marked and substantially improved",4
same,Global improvement on the 0-4 scale,[3]; Patient B,3
same,Frequency of bowel actions,[3]; [6],no change
same,Reduction in abdominal cramping,[3]; [6],50%
same,Abdominal pain associated with cramping,"[3]; Patient B, after 75 days of treatment",total elimination of abdominal pain associated with cramping
same,Stool frequency,"[3]; Patient B, after 75 days of treatment, before treatment 10-12 diarrheal movements per day",2-4 bowel movements per day
same,Global improvement on the 0-4 scale,[3]; Patient C,2.5
same,IBS symptoms,"[3]; Patient C, 24 month follow-up, diagnosed with fibromyalgia, 1-2 mg/day, stopped after 6 months",did not respond
same,Abdominal pain associated with cramping,"[3]; Patient C, after 75 days of 2 mg/day",eliminated
same,Frequency of loose bowel movements,"[3]; Patient C, after 75 days of 2 mg/day, before treatment 2-3 loose bowel movements daily",halved in frequency
same,Global improvement on the 0-4 scale,[3]; Patient D,2.5
same,Decrease in cramping,[3]; [7],75%
same,Reduction in frequency of bowel actions,[3]; [7],20%
same,IBS symptoms after treatment was halted,"[3]; Patient D, low-dose treatment halted after 9 months",IBS symptoms returned
same,Abdominal cramping symptoms,"[3]; Patient D, upon initiation of low dose treatment, continued over 70 days",immediate relief of abdominal cramping symptoms
same,Reduction in stool frequency,"[3]; Patient D, upon initiation, continued over 70 day treatment period, before treatment 7-10 unformed diarrheal movements per day",50%
same,IBS symptoms on every other day dosing schedule,"[3]; Patients A and C, dosing changed to every other day",IBS symptoms returned
same,Side effects,"[3]; four patients, 2 mg orally each morning",None of the four patients reported discernible side effects
C=C1CC[C@@]2(O)[C@H]3Cc4ccc(O)c5c4[C@@]2(CCN3CC2CC2)[C@H]1O5 [nalmefene],Effect on morphine's analgesic potency,"[2]; ca. 15 μg, IV",markedly enhance morphine's analgesic potency
same,Effect on opioid analgesia,[2]; doses of >0.5 mg,markedly attenuate opioid analgesia
same,Effect on analgesic potency of morphine,[2],markedly enhanced the analgesic potency of morphine
fedotizine,Treatment of IBS,[4],successful treatment
